Laboratory results published in patent US6562871B1, “Dry granulation of pharmaceutical formulation comprising mexiletine” (Boehringer Ingelheim Pharmaceuticals, Inc., priority 2000, dated 2003).
Like-named read-outs stand apart in the source and are kept apart here.

Assays:
[1] = Protocol: Particle size and distribution was determined by suspending a sample of powder in mineral oil on a hemacytometer and counting particles in the size ranges: 1-5, 5-10, 10-25, 25-50, 50-100, 100-200, >200 μm using a polarizing light microscope. At least 200 particles were counted.
Maximum and minimum particle sizes were determined with a large sampling using a low power, stereo microscope. The sample was suspended in a well slide filled with mineral oil. Measurements of the largest and smallest particles were made with a calibrated reticule.

[2] = Compressional force profiles; assay type: physicochemical; settings: slugs on hydraulic press, FIG. 1 and FIG. 2
Description: Compressional force profiles were generated on a calibrated Carver press using 12 mm standard cup punches and matching die. The punches and die were dusted with magnesium stearate to facilitate the release of the slug from the die. Five hundred milligram aliquots of drug substance were weighed and individually loaded into the die for compression. Slugs were compressed at 1000, 2000, 3000, 4000, 5000, 6000, 7000 and 8000 pounds gauge force (unless otherwise noted). Gauge force readings were corrected based on the calibration for that gauge and press. The compressed slugs for each representative force were weighed on a four place balance and measured for thickness. Pressure, volume and density were calculated using slug (tablet) geometry and area.

[3] = Pour and tap density; assay type: physicochemical; settings: average of two measurements
Protocol: Pour and tap density were tested using a Van Kel dual tapper and a 100 mL fluted graduate. The tare weight of the graduate was determined. It was then filled by pouring the powder into the graduate to approximately 70 mL. The net weight was next determined and a pour density calculated by dividing the net weight by the observed volume. Tap density was determined by allowing the graduate to tap 1000 times and reading the new volume. Tap density was calculated by dividing the net weight by the new “tap” volume. Both measurements were expressed in grams/mL. Results were reported as the average of two measurements.

[4] = Flow studies (funnel flow rate, angle of repose); assay type: physicochemical
Protocol: The flow studies were performed using a ring stand and funnel set-up, such that the funnel was perpendicular to the table flat surface and the tip of the funnel was 6 inches from the table flat surface. The funnel was plastic with the following dimensions: upper diameter, 150 mm, lower diameter 24 mm, and overall length 135 mm. To the upper, wider diameter of the funnel a vibrator was placed touching the outer perimeter. The vibrator was set on its dial such that the indicator was in the 3 o'clock position. Fifty grams of material was placed into the funnel while holding a piece of cardboard under it. The vibrator was started, and the cardboard was removed while simultaneously starting a timer. The time for the fifty grams to pass through a funnel was recorded. The angle of repose, the maximum angle that can be obtained between the free standing surface of a powder heap and the horizontal plane, was calculated according to: […]
Where h is the height of the powder heap and D is the diameter of the base of the powder heap. Tests were performed in duplicate.

For `Cc1cccc(C)c1OCC(C)N` (centres unmarked) [Mexiletine Drug Substance, 1-(2,6-dimethyl-phenoxy)-2-propanamine], the “Particle Size Distribution, % by number” value ([1]; size range 1-5 μm) was 32.0%, the “Particle Size Distribution, % by number” value ([1]; size range 5-10 μm) was 23.3% and the “Particle Size Distribution, % by number” value ([1]; size range 10-25 μm) was 37.9%. The “Particle Size Distribution, % by number” value ([1]; size range 25-50 μm) was 6.6%, the “Particle Size Distribution, % by number” value ([1]; size range 50-100 μm) was 0.2% and the “Particle Size Distribution, % by number” value ([1]; size range 100-200 μm) was 0.0%. The “Particle Size Distribution, % by number” value ([1]; size range >200 μm) was 0.0%, the “Size of larger particles” value ([1]; well slide technique, larger sample sizes, very few) was 150 μm and the “Compressibility (density vs pressure)” value ([2]; listed as drug substance) was “very compressible”. The “Compressibility (density vs pressure)” value ([2]; listed as mexiletine drug substance) was “very good compressional characteristics”, the “Tap Density” value ([3]; 1000 taps) was 0.35 g/mL and the “Bulk Density” value ([3]; pour density) was 0.22 g/mL. For the same compound, the “Angle of Repose” value [4] was 62 ° and the “Flow Rate” value ([4]; 50 g through funnel, vibrator assisted) was 2.1 g/s.
